From the supplement of paper PMC8253809

How the values were obtained:
[1] = system: HGGX6 (H3.3 G34R paediatric high-grade glioma line); assay: area under dose-response curve of % growth inhibition (log2 RLU vs DMSO / staurosporine), 1e-11 to 1e-4 M (% x log10 M); higher = more growth inhibition
How it was run: (§1)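 A 10-point threefold dilution series, mean top concentration 35 μM, was applied in triplicate to patient-derived pHGG/DIPG lines and astrocytes on 1% Geltrex-coated 384-well plates for 7 days (3 days for iAstro) at 37 °C, 5% CO2. Per-plate % activity between solvent and positive controls was calculated from log2-transformed CellTiter-Glo luminescence. Area under the curve followed from the trapezoid rule on a log-logistic fit, or on a smoothing spline when the sigmoid fit failed.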

[2] = system: HGGX42 (H3.3 G34R paediatric high-grade glioma line); assay: as above
How it was run: as §1

[3] = system: DIPGX9 (diffuse intrinsic pontine glioma line); assay: as above
How it was run: as §1

[4] = system: SUDIPGXXI (diffuse intrinsic pontine glioma line); assay: as above
How it was run: as §1

[5] = system: DIPGX7 (H3.3 K27M diffuse intrinsic pontine glioma line); assay: as above
How it was run: as §1

[6] = system: SUDIPGXIII (diffuse intrinsic pontine glioma line); assay: as above
How it was run: as §1

[7] = system: HGGX39 (paediatric high-grade glioma line); assay: as above
How it was run: as §1

[8] = system: iAstro (astrocyte control); assay: as above
How it was run: as §1

[9] = system: HGGX2 (paediatric high-grade glioma line); assay: as above
How it was run: as §1

[10] = system: HABS (astrocyte control); assay: as above
How it was run: as §1

[11] = system: DIPGX29 (H3.3 K27M diffuse intrinsic pontine glioma line); assay: as above
How it was run: as §1

[12] = system: SUDIPGXIX (diffuse intrinsic pontine glioma line); assay: as above
How it was run: as §1

[13] = system: SUDIPGVI (diffuse intrinsic pontine glioma line); assay: as above
How it was run: as §1

[14] = system: SUDIPGXVII (diffuse intrinsic pontine glioma line); assay: as above
How it was run: as §1

[15] = system: SUDIPGIV (diffuse intrinsic pontine glioma line); assay: as above
How it was run: as §1

[16] = system: DIPGX37 (H3.3 K27M diffuse intrinsic pontine glioma line); assay: as above
How it was run: as §1

[17] = system: HGGX42; assay: EC50 (inflection of fitted growth-inhibition curve) (log10 M)
How it was run: (§2)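 A pin tool was used to add a 10-point threefold dilution series (mean top concentration 35 μM), in triplicate, to patient-derived pHGG/DIPG cell lines and astrocyte controls seeded on 384-well plates coated with 1% Geltrex. After 7 days at 37 °C and 5% CO2 (3 days for iAstro), CellTiter-Glo luminescence was log2-transformed, normalised on each plate to % activity relative to negative (solvent) and positive control wells, and pooled. EC50 and maximal response (yFin) were read from the three- or four-parameter log-logistic fit with the lowest AICc.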

[18] = system: DIPGX9; assay: as above
How it was run: as §2

[19] = system: SUDIPGXXI; assay: as above
How it was run: as §2

[20] = system: DIPGX7; assay: as above
How it was run: as §2

[21] = system: SUDIPGXIII; assay: as above
How it was run: as §2

[22] = system: HGGX39; assay: as above
How it was run: as §2

[23] = system: iAstro; assay: as above
How it was run: as §2

[24] = system: HGGX2; assay: as above
How it was run: as §2

[25] = system: HABS; assay: as above
How it was run: as §2

[26] = system: DIPGX29; assay: as above
How it was run: as §2

[27] = system: SUDIPGXIX; assay: as above
How it was run: as §2

[28] = system: SUDIPGVI; assay: as above
How it was run: as §2

[29] = system: SUDIPGXVII; assay: as above
How it was run: as §2

[30] = system: SUDIPGIV; assay: as above
How it was run: as §2

[31] = system: DIPGX37; assay: as above
How it was run: as §2

SMILES | area under dose-response curve [1] | area under dose-response curve [2] | area under dose-response curve [3] | area under dose-response curve [4] | area under dose-response curve [5] | area under dose-response curve [6] | area under dose-response curve [7] | area under dose-response curve [8] | area under dose-response curve [9] | area under dose-response curve [10] | area under dose-response curve [11] | area under dose-response curve [12] | area under dose-response curve [13] | area under dose-response curve [14] | area under dose-response curve [15] | area under dose-response curve [16] | EC50 (log10 M) [17] | EC50 (log10 M) [18] | EC50 (log10 M) [19] | EC50 (log10 M) [20] | EC50 (log10 M) [21] | EC50 (log10 M) [22] | EC50 (log10 M) [23] | EC50 (log10 M) [24] | EC50 (log10 M) [25] | EC50 (log10 M) [26] | EC50 (log10 M) [27] | EC50 (log10 M) [28] | EC50 (log10 M) [29] | EC50 (log10 M) [30] | EC50 (log10 M) [31]
CC(=O)c1ccc2c(c1)c1cc(C(C)=O)ccc1n2CCNC(C)C [CBL-0137] | 122 | 154 | 218 | 277 | 137 | 123 | 148 | 57.3 | 134 | 155 | 135 | 223 | 109 | 129 | 156 | 199 | -5.67 | -6.06 | -6.51 | -5.22 | -5.14 | -5.42 | -6.54 | -5.6 | -6.08 | -5.42 | -6.28 | -5.09 | -5.23 | -5.61 | -5.98
O=C(Nc1ccc(Nc2nccc(Nc3cc(C4CCCC4)[nH]n3)n2)cc1)Nc1cccc(C(F)(F)F)c1 [CD532] | 202 | 271 | 305 | 352 | 282 | 235 | 200 | 213 | 246 | 174 | 221 | 283 | 272 | 247 | 276 | 238 | -6.66 | -6.65 | -7.24 | -6.51 | -6.36 | -5.92 | -6.36 | -6.21 | -5.37 | -6.34 | -6.52 | -6.5 | -6.47 | -6.47 | -6.42
NC1CCC(Nc2cc(-c3cccc(NCc4cccc(F)c4)n3)c(Cl)cn2)CC1 (configuration not stated) [CDK9-IN-2] | 199 | 230 | 278 | 326 | 249 | 167 | 172 | 135 | 181 | 180 | 206 | 254 | 209 | 232 | 243 | 214 | -7 | -7.13 | -7.4 | -6.76 | -5.75 | -5.75 | -5.35 | -5.72 | -5.73 | -6.87 | -6.93 | -6.92 | -6.67 | -6.76 | -6.76
C[C@@H](Oc1cc(-c2cnn(C3CCNCC3)c2)cnc1N)c1c(Cl)ccc(F)c1Cl [CRIZOTINIB] | 59.1 | 117 | 112 | 200 | 91.9 | 74.2 | 64 | 78 | 107 | 76.5 | 87.6 | 123 | 112 | 87 | 96.9 | 87.8 | -5.15 | -5.11 | -5.77 | -4.88 | -4.81 | -4.69 | -4.89 | -5.11 | -4.84 | -4.83 | -5.23 | -5.01 | -4.9 | -4.85 | -4.84
COc1ccc(-c2nc(N3CCOCC3)c3sc(CN(C)c4ncc(C(=O)NO)cn4)cc3n2)cn1 [CUDC-907] | 264 | 315 | 368 | 470 | 294 | 188 | 325 | 181 | 298 | 299 | 298 | 346 | 290 | 294 | 319 | 331 | -7.01 | -7.42 | -7.9 | -7.01 | -5.71 | -6.9 | -6.31 | -7 | -6.29 | -6.81 | -6.9 | -6.96 | -6.74 | -6.82 | -6.78
CN1CCCN(C(=O)c2cccc(-c3ccc(/C=C4/C(=O)Nc5ccc(Cl)cc54)o3)c2)CC1 [CX-6258] | 132 | 184 | 167 | 330 | 157 | 112 | 139 | 168 | 162 | 124 | 179 | 162 | 130 | 137 | 165 | 191 | -5.75 | -5.34 | -7.11 | -5.42 | -5.08 | -5.28 | -5.49 | -5.51 | -5.1 | -5.6 | -5.48 | -5.2 | -5.25 | -5.37 | -5.76
COc1cccc2c1C(=O)c1c(O)c3c(c(O)c1C2=O)C[C@@](O)(C(=O)CO)C[C@@H]3O[C@H]1C[C@H](N)[C@H](O)[C@H](C)O1 [DOXORUBICIN] | 147 | 260 | 293 | 420 | 213 | 170 | 174 | 78.3 | 168 | 210 | 169 | 294 | 159 | 195 | 255 | 210 | -6.5 | -6.92 | -8.4 | -6.06 | -5.71 | -5.68 | -7.21 | -6.74 | -7.02 | -5.63 | -7.02 | -5.86 | -5.78 | -6.59 | -6.4
CCCCc1oc2ccc(NS(C)(=O)=O)cc2c1C(=O)c1ccc(OCCCN(CCCC)CCCC)cc1 [DRONEDARONE] | 106 | 165 | 128 | 225 | 194 | 105 | 108 | 134 | 136 | 91.3 | 148 | 137 | 105 | 119 | 149 | 138 | -5.41 | -5.04 | -5.77 | -5.35 | -4.89 | -5.01 | -5.29 | -5.19 | -4.77 | -5.42 | -5.12 | -4.87 | -4.97 | -5.15 | -5.38
CCOC(=O)CCNc1cc(N2CCc3ccccc3CC2)nc(-c2ccccn2)n1 [GSK-J4] | 63.1 | 87.1 | 103 | 213 | 46.8 | 61.1 | 62.2 | 97.7 | 100 | 71.4 | 80.7 | 104 | 52.4 | 54.8 | 62 | 67.7 | -4.87 | -4.99 | -5.9 | -5 | -4.82 | -4.98 | -5.51 | -5 | -4.98 | -4.87 | -4.97 | -4.9 | -4.99 | -5.01 | -4.9
O=C(c1ccc(Nc2nccc(-c3cc4ccccc4s3)n2)cc1)N1CCC(N2CCCC2)CC1 [IKK 16] | 88.2 | 187 | 105 | 165 | 155 | 107 | 137 | 110 | 146 | 93.1 | 180 | 127 | 111 | 108 | 132 | 183 | -5.62 | -4.84 | -5.37 | -5.27 | -4.69 | -4.92 | -5.16 | -5.4 | -4.75 | -5.53 | -4.87 | -4.85 | -4.85 | -5.15 | -5.52
CC(C)C[C@H](NC(=O)CNC(=O)c1cc(Cl)ccc1Cl)B(O)O [IXAZOMIB] | 260 | 234 | 304 | 337 | 302 | 266 | 302 | 264 | 242 | 288 | 210 | 327 | 242 | 247 | 322 | 315 | -7.31 | -7.68 | -7.9 | -7.71 | -7.52 | -7.57 | -7.92 | -6.73 | -7.43 | -6.63 | -7.71 | -7.33 | -7.05 | -7.6 | -7.94
Cc1c(C2CCN(CCc3ccccc3)CC2)noc1-c1ccc(Cl)cc1 [L-741,742] | 83.5 | 90.7 | 30.3 | 145 | 118 | 21.9 | 96.9 | 41.1 | 35.6 | 25.7 | 100 | 22.6 | 36.1 | 40.3 | 91.7 | 93.6 | -4.88 | -5.35 | -4.91 | -4.84 | -4.71 | -4.87 | -5 | -4.83 | -4.83 | -4.99 | -4.84 | -4.81 | -4.87 | -4.89 | -4.93
